Results taken from patent US6077503A, “Skin whitener composition containing mercaptodextran” (Amway Corporation, priority 1997, dated 2000).

Test system: tyrosinase from mushroom
Assay: Inhibition of mushroom tyrosinase (tyrosine substrate, absorbance at 475 nm after 24 hours)
Type: biochemical
Protocol: A buffer solution A containing 50 mM sodium acetate was prepared to yield a 6.8 pH. A tryosine solution was prepared by adding 15 mg of tyrosine to 100 ml of buffer solution A. A tyrosinase solution was prepared by adding 11.5 mg tyrosinase from mushroom (Serva Art. 37618, 72 μ/mg) in 1.2 ml. of buffer solution A. A test tube was charged with 2.7 ml of buffer solution A and 0.4 ml. water to define a blank. Similarly, another test tube was charged with 2.7 ml. of the tyrosine solution, 0.3 ml of water, and 0.1 ml of the tyrosinase solution to define a reference. The samples were stored for 24 hours at a temperature between 23° C. and 25° C. The absorbency of the reference was measured at 475 nm with a spectrophotometer and the absorbancy was set to zero. […] A test tube was charged with 2.7 ml of the tyrosine solution, 0.1 ml. of the tyrosinase solution and 1% mercaptodextran having a molecular weight of about 10,000 from Pharmacia Biotech. The sample was stored for 24 hours at a temperature between 23° C. and 25° C. The absorbancy of was measured at 24 hours. The percent inhibition of the tyrosinase of was calculated as follows: [formula]

[1] = Example 1 / Table 1, whitener 1.0 wt %, 24 hours at 23-25° C., pH 6.8

Percent inhibition (24 hours) [1] | Percent inhibition (24 hours) (Example 2 / Table 2, whitening agent 1.0 wt %, 24 hours) | Structure (SMILES)
0.0% |  | O=c1oc2cc(O)ccc2s1 [Tioxolone]
87.8% | 90.9% | O=c1cc(CO)occ1O [Kojic Acid]
